Tests used:
[1] = biological target: T1, MALT1 (Homo sapiens, UniProt Q9UDY8); test: MALT-1 Fluorogenic Peptide Cleavage Assay (MALT1 inhibition assay); type: biochemical; settings: Avi-tagged FL MALT-1, Ac-LRSR-AMC peptide substrate, 30 min pre-incubation, 90 min reaction
T1 construct: Avi-tagged FL MALT-1 (Pharmaron, stored at −70° C.); Avi tag
T1 sequence (Q9UDY8 1-824): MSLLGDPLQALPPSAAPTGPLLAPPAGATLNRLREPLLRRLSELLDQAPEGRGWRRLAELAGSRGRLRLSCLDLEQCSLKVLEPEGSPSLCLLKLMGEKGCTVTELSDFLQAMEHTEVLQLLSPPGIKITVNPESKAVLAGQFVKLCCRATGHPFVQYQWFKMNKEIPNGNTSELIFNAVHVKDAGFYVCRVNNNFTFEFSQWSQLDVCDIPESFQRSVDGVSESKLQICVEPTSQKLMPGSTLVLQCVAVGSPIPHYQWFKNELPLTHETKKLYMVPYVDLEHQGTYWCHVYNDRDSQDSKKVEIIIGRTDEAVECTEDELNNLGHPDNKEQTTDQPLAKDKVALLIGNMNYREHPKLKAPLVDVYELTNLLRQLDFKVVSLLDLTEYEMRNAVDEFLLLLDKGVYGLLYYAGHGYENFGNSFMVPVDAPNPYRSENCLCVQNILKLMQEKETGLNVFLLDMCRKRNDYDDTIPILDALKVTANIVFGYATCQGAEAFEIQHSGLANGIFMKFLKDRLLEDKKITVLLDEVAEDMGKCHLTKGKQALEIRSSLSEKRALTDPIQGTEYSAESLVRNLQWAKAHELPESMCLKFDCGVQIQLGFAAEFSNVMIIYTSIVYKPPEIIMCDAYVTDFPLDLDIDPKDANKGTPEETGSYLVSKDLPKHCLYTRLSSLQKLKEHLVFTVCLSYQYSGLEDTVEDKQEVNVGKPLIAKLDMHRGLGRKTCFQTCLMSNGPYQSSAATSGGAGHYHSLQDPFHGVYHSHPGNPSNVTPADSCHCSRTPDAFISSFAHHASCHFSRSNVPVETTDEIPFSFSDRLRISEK
Method in brief: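 Avi-tagged full-length MALT1 pre-incubated 30 min with compound (2% DMSO final), then cleavage of Ac-LRSR-AMC followed over 90 min at room temperature. AMC fluorescence read at 342/441 nm; % inhibition fitted to sigmoidal curves for IC50.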

[2] = system: NF-kB; test: NF-kB reporter assay in Jurkat cells stimulated with aCD3/aCD28/PMA; type: cell-based; settings: Homo sapiens, Jurkat, Jurkat cells, 1 hr compound incubation, aCD3/aCD28/PMA stimulation 4 hr, One-Glo readout; read-out: NF-kB Reporter Assay IC50
Method in brief: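 Jurkat cells (25,000/well, serum-free RPMI 1640) preincubated 1 hr at 37° C with serially diluted compound, then stimulated with aCD3/aCD28/PMA (final 5 μg/mL, 5 μg/mL, 0.03 μg/mL) for 4 hr. Reporter luminescence read with One-Glo; IC50 derived.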

IC50 [1] [nM]	IC50 [2] [nM]	Structure (SMILES)
> 2500	< 400	COc1nn(C)cc1-c1ccc(S(=O)(=O)Nc2cccc3cnn(C)c23)cn1 [Example I-125, 6-(3-Methoxy-1-Methyl-1H-Pyrazol-4-yl)-N-(1-Methyl-1H-Indazol-7-yl)Pyridine-3-Sulfonamide]
< 400	< 400	COc1ccc2cnn(C)c2c1NS(=O)(=O)c1ccc(-n2ccc(C(F)F)n2)nc1 [Example I-127, 6-(3-(Difluoromethyl)-1H-Pyrazol-1-yl)-N-(6-Methoxy-1-Methyl-1H-Indazol-7-yl)Pyridine-3-Sulfonamide]
1000 to 2500	400 to 1000	COc1ccc2nnn(C)c2c1NS(=O)(=O)c1ccc(-n2ccc(C(F)(F)F)n2)nc1 [Example I-128, N-(6-methoxy-1-methyl-1H-benzo[d][1,2,3]triazol-7-yl)-6-(3-(trifluoromethyl)-1H-pyrazol-1-yl)pyridine-3-sulfonamide]
> 2500	< 400	Cc1cncc(-c2ccc(S(=O)(=O)Nc3cccc4cnn(C)c34)cn2)c1 [Example I-131, 5′-methyl-N-(1-methylindazol-7-yl)-[2,3′-bipyridine]-5-sulfonamide]
> 2500	< 400	Cc1cc(-c2ccc(S(=O)(=O)Nc3cccc4cnn(C)c34)cn2)ccn1 [Example I-132, 2′-methyl-N-(1-methylindazol-7-yl)-[2,4′-bipyridine]-5-sulfonamide]
> 2500	< 400	Cn1ncc2cccc(NS(=O)(=O)c3ccc(-c4cncc(F)c4)nc3)c21 [Example I-134, 5′-Fluoro-N-(1-Methyl-1H-Indazol-7-yl)-[2,3′-Bipyridine]-5-Sulfonamide]
> 2500	< 400	Cn1ncc2cccc(NS(=O)(=O)c3ccc(-c4ccn(C(F)F)n4)nc3)c21 [Example I-138, 6-(1-(Difluoromethyl)-1H-Pyrazol-3-yl)-N-(1-Methyl-1H-Indazol-7-yl)Pyridine-3-Sulfonamide]
< 400	< 400	COc1ccc2cnn(C)c2c1NS(=O)(=O)c1ccc(-n2nc(C)c(Cl)c2C)nc1 [Example I-141, 6-(4-Chloro-3,5-Dimethyl-1H-Pyrazol-1-yl)-N-(6-Methoxy-1-Methyl-1H-Indazol-7-yl)Pyridine-3-Sulfonamide]
< 400	< 400	Cn1ccc2cccc(NS(=O)(=O)c3ccc(-c4cc(C(F)(F)F)n[nH]4)nc3)c21 [Example I-143, N-(1-Methyl-1H-Indol-7-yl)-6-(5-(Trifluoromethyl)-1H-Pyrazol-3-yl)Pyridine-3-Sulfonamide]
> 2500	> 2500	COc1ccc2cnn(C)c2c1NS(=O)(=O)c1ccc(-n2nnc(C)n2)nc1 [Example I-144, N-(6-Methoxy-1-Methyl-1H-Indazol-7-yl)-6-(5-Methyl-2H-Tetrazol-2-yl)Pyridine-3-Sulfonamide]
> 2500	> 2500	Cn1ncc2cccc(NS(=O)(=O)c3ccc(-c4cnn(CCO)c4)nc3)c21 [Example I-146, 6-(1-(2-Hydroxyethyl)-1H-Pyrazol-4-yl)-N-(1-Methyl-1H-Indazol-7-yl)Pyridine-3-Sulfonamide]
< 400	< 400	COc1ccc2cnn(C)c2c1NS(=O)(=O)c1ccc(-n2ncc(C)c2C)nc1 [Example I-148, 6-(4,5-Dimethyl-1H-Pyrazol-1-yl)-N-(6-Methoxy-1-Methyl-1H-Indazol-7-yl)Pyridine-3-Sulfonamide]
< 400	< 400	COc1ccc2cnn(C)c2c1NS(=O)(=O)c1ccc(-c2cnc(C)s2)nc1 [Example I-149, N-(6-Methoxy-1-Methyl-1H-Indazol-7-yl)-6-(2-Methylthiazol-5-yl)Pyridine-3-Sulfonamide]
< 400	< 400	COc1ccc2cnn(C)c2c1NS(=O)(=O)c1ccc(-n2cc(F)cn2)nc1 [Example I-150, 6-(4-Fluoro-1H-Pyrazol-1-yl)-N-(6-Methoxy-1-Methyl-1H-Indazol-7-yl)Pyridine-3-Sulfonamide]

The next lines start with the compound.

Structure (SMILES)	IC50 [1] [nM]	IC50 [2] [nM]
Cn1ncc2cccc(NS(=O)(=O)c3ccc(-c4ccncc4F)nc3)c21 [Example I-120, 3′-Fluoro-N-(1-Methylindazol-7-yl)-[2,4′-Bipyridine]-5-Sulfonamide]	> 2500	< 400
Cn1ncc2cccc(NS(=O)(=O)c3ccc(-c4cncc(Cl)c4)nc3)c21 [Example I-121, 5′-Chloro-N-(1-Methyl-1H-Indazol-7-yl)-[2,3′-Bipyridine]-5-Sulfonamide]	> 2500	< 400
Cc1ccc(-c2ccc(S(=O)(=O)Nc3cccc4cnn(C)c34)cn2)cn1 [Example I-122, 6′-Methyl-N-(1-Methyl-1H-Indazol-7-yl)-[2,3′-Bipyridine]-5-Sulfonamide]	> 2500	< 400
Cc1ccncc1-c1ccc(S(=O)(=O)Nc2cccc3cnn(C)c23)cn1 [Example I-123, 4′-Methyl-N-(1-Methyl-1H-Indazol-7-yl)-2,3′-Bipyridine-5-Sulfonamide]	> 2500	400 to 1000
Cc1cnn(C)c1-c1ccc(S(=O)(=O)Nc2cccc3cnn(C)c23)cn1 [Example I-124, 6-(1,4-Dimethyl-1H-Pyrazol-5-yl)-N-(1-Methyl-1H-Indazol-7-yl)Pyridine-3-Sulfonamide]	> 2500	> 2500
CCc1ccc2cnn(C)c2c1NS(=O)(=O)c1ccc(-n2nccc2C(F)(F)F)nc1 [Example I-126, N-(6-ethyl-1-methyl-1H-indazol-7-yl)-6-(5-(trifluoromethyl)-1H-pyrazol-1-yl)pyridine-3-sulfonamide]	< 400	< 400
COc1ccc2cnn(C)c2c1NS(=O)(=O)c1ccc(-n2cc(C)c(C)n2)nc1 [Example I-129, 6-(3,4-dimethyl-1H-pyrazol-1-yl)-N-(6-methoxy-1-methyl-1H-indazol-7-yl)pyridine-3-sulfonamide]	< 400	< 400
Cn1ncc2cccc(NS(=O)(=O)c3ccc(-c4cncc(C#N)c4)nc3)c21 [Example I-130, 5′-cyano-N-(1-methylindazol-7-yl)-[2,3′-bipyridine]-5-sulfonamide]	> 2500	1000 to 2500
Cn1ncc2cccc(NS(=O)(=O)c3ccc(-c4cncnc4)nc3)c21 [Example I-133, N-(1-methylindazol-7-yl)-6-(pyrimidin-5-yl)pyridine-3-sulfonamide]	> 2500	> 2500
Cc1ncc(-c2ccc(S(=O)(=O)Nc3cccc4cnn(C)c34)cn2)cn1 [Example I-135, N-(1-Methyl-1H-Indazol-7-yl)-6-(2-Methylpyrimidin-5-yl)Pyridine-3-Sulfonamide]	> 2500	400 to 1000
Cn1ncc2cccc(NS(=O)(=O)c3ccc(-c4ccc(O)nc4)nc3)c21 [Example I-136, 6′-Hydroxy-N-(1-Methyl-1H-Indazol-7-yl)-[2,3′-Bipyridine]-5-Sulfonamide]	> 2500	> 2500
Cn1ncc2cccc(NS(=O)(=O)c3ccc(-c4cncc(S(C)(=O)=O)c4)nc3)c21 [Example I-137, N-(1-Methyl-1H-Indazol-7-yl)-5′-(Methylsulfonyl)-[2,3′-Bipyridine]-5-Sulfonamide]	> 2500	> 2500
COc1ncccc1-c1ccc(S(=O)(=O)Nc2cccc3cnn(C)c23)cn1 [Example I-139, 2′-Methoxy-N-(1-Methyl-1H-Indazol-7-yl)-[2,3′-Bipyridine]-5-Sulfonamide]	> 2500	< 400
COc1ccc2cnn(C)c2c1NS(=O)(=O)c1ccc(-n2nc(C)c(C)c2C)nc1 [Example I-140, N-(6-Methoxy-1-Methyl-1H-Indazol-7-yl)-6-(3,4,5-Trimethyl-1H-Pyrazol-1-yl)Pyridine-3-Sulfonamide]	< 400	< 400
COc1ccc2cnn(C)c2c1NS(=O)(=O)c1ccc(-n2nc(C)cc2C)nc1 [Example I-142, 6-(3,5-Dimethyl-1H-Pyrazol-1-yl)-N-(6-Methoxy-1-Methyl-1H-Indazol-7-yl)Pyridine-3-Sulfonamide]	< 400	< 400
COc1ccc2cnn(C)c2c1NS(=O)(=O)c1ccc(-n2nccc2C2CC2)nc1 [Example I-147, 6-(5-Cyclopropyl-1H-Pyrazol-1-yl)-N-(6-Methoxy-1-Methyl-1H-Indazol-7-yl)Pyridine-3-Sulfonamide]	> 2500	400 to 1000

From patent US20240150365A1 (Hotspot Therapeutics, Inc., priority 2022, published 2024)
